In publication PMC9658984, “Acetylation Enhances the Anticancer Activity and Oral Bioavailability of 5-Demethyltangeretin” (International Journal of Molecular Sciences, 2022):
Marks after values point to notes of the source that are not given here.

Columns and labels:
caspase-3 = test: Caspase-3 activity by flow cytometry (CaspGLOW staining); format: cell-based, human; conditions: PC-3 cells, 48 h
Experimental: (§1) The PC-3 cells were treated with the indicated concentration of 5-DTAN or 5-ATAN for 48 h, and then cells were collected and stained by a CaspGLOW^TM Fluorescein Active Caspase-3 Staining Kit (Thermo Fisher Scientific, MA, USA) or 3,3′-dihexyloxacarbocyanine iodide (DiOC6, Merck Millipore, Burlington, MA, USA) for caspase-3 activity and mitochondria membrane potential analysis, respectively. The percentages of caspase-3-activated or DiOC6-positive cells were measured using a flow cytometer and calculated by the CellQuest Pro software.

Cyclin B1 = test: Western blot protein expression, Cyclin B1; format: cell-based, human; conditions: PC-3 cells, 10 µM, time-dependent
Experimental: (§2) Western blot was performed to analyze the protein expression in the PC-3 Cells. The cells were exposed to indicated concentrations of 5-ATAN for various time periods at 37 °C. Then, they were washed with cold PBS and harvested, and a Western blot was conducted as previously described.

MMP-2 = test: Western blot protein expression, MMP-2; format: cell-based, human; conditions: PC-3 cells, 5 µM, only at 48 h
Experimental: as §2

MMP-9 = test: Western blot protein expression, MMP-9; format: cell-based, human; conditions: PC-3 cells, 5 µM, effect enhanced with treatment time
Experimental: as §2

Cdc2 = test: Western blot protein expression, Cdc2; format: cell-based, human; conditions: PC-3 cells, 10 µM, only after 48 h
Experimental: as §2

PC-3 cell xenografts = test: Tumor growth inhibition in PC-3 cell xenograft model; format: in vivo, nude mice; conditions: for Tumor growth inhibitory rate, estimated by the means of tumor weight / Tumor weight at the end of the experiment: 10 mg/kg daily oral, nude mice; for Tumor weight at the end of the experiment: day 24, control 2.47 ± 0.43 g; for Effect on tumor volume: 10 mg/kg daily, PC-3 cell xenografts in nude mice
Excerpt: Male nu/nu mice were obtained from BioLasco Taiwan (Taipei, Taiwan) and maintained on a standard laboratory chow (Purina rodent chow 5001, Purina, St. Louis, MO, USA). At 5 weeks of age, nude mice were used for the xenograft experiment. For the oral bioavailability study, 5-week-old male […] mice were purchased from the National Laboratory Animal Center (Taipei, Taiwan), and the experiment was started after 1 week of acclimation. All mice were housed in an air-conditioned room (temperature: 22 ± 2 °C; humidity: 50–60%) under standard conditions (12 h light/12 h dark cycle). All animal studies were approved by the National Pingtung University of Science and Technology, Institutional Animal Care and Use Committee with protocol numbers NPUST-102-015 and NPUST-105-045.
The 5-week-old nude mice were divided into three groups (n = 6) and administered with the vehicle, 5-DTAN (10 mg/kg), and 5-ATAN (10 mg/kg), respectively. Tumors were established by subcutaneous injections of PC-3 cells (1 × 10^6 cells) into the right flank side of nude mice. The tumor size was measured twice a week with digital calipers, and the tumor volume (V) was calculated by the following formula: V = length × width^2 × 0.5. On day 24, the mice were sacrificed by CO2, and the tumors were harvested and weighed.

PC-3 cells [1] = test: Wound healing cell migration assay; format: cell-based, human; conditions: 24 h
Experimental: (§3) The colony formation assay was conducted using a procedure modified from the previous report. PC-3 cells were seeded in 6-well plates at a density of 500 cells/well and allowed to attach for 24 h. Subsequently, the cells were treated with various concentrations of 5-ATAN. After 14 days of incubation, the colonies formed were observed by crystal violet staining and photographed. The wound healing assay was performed to assess the effect of 5-ATAN on the migration ability of PC-3 cells. Cells were seeded into a 6 cm dish at a cell density of 1 × 10^6 cells/well. After being cultured at 37 °C for 24 h, a 200 µL yellow pipette tip was used to scrape a gap in the middle of the dish. After washing twice with 1X PBS solution, the medium was replaced with fresh, serum-free medium containing different concentrations of 5-ATAN and incubated for 24 h. Then, the images were taken with an inverted phase contrast microscope at a magnification of 100×, and the Image J software was used for the measurement of the wound width. The percentage of cell migration (% of control) was calculated by measuring the movement of the cells into the scratch area after 24 h of treatment with DMSO or 5-ATAN.

Bax = test: Western blot protein expression, Bax; format: cell-based, human; conditions: PC-3 cells, 10 µM
Experimental: as §2

CL1-5 cell xenograft = system: CL1-5 cell xenograft; design: method as in PMID 26569090; conditions: 20 mg/kg i.p., CL1-5 cell xenograft mice; cited from earlier work
PC-3 cells [2] = test: Cell cycle distribution / sub-G1 apoptotic ratio by PI flow cytometry; format: cell-based, human; conditions: 48 h
Experimental: (§4) PC-3 cells were seeded in 96-well plates at a density of 2.5 × 10^3 cells/well and allowed to attach for 24 h. The medium was changed to serum-free RPMI supplemented with 0–20 μM TAN, 5-DTAN, or 5-ATAN, and then incubated for an additional 48 h. The cell viability was determined by the MTT assay and represented as a percentage of the growth of the DMSO-treated cells. FACScan flow cytometer (Becton Dickinson, San Jose, CA, USA) was used to analyze the cell cycle distribution as previously mentioned. Briefly, PC-3 cells treated with various concentrations of 5-DTAN or 5-ATAN for 48 h were trypsinized and gently fixed in 70% ice-cold ethanol and stored at −20 °C for at least 24 h. Then, the cells were washed with cold phosphate-buffered saline (PBS), followed by incubation with 40 μg/mL PI, 0.1 mg/mL RNase A, and 0.1% TritonX-100 in the dark for 30 min at room temperature. Subsequently, the cell cycle distribution of the PI-stained cells was analyzed by a FACScan flow cytometer, and the results were analyzed and calculated using ModFit LT Ver. 3.0 software. The proportion of the sub-G1 phase was quantitated and represented as the apoptotic ratio. Furthermore, a QIAamp DNA mini kit was used to extract DNA from the PC-3 cells treated with 5-DTAN or 5-ATAN for 48 h. Then, the extracted DNA was loaded on a 2% agarose gel containing HealthView^TM Nucleic Acid Stain (Genomics, New Taipei, Taiwan) for electrophoresis at 50 V. The gel was visualized under UV light, and the DNA fragmentation pattern was photographed.

Cdc25c = test: Western blot protein expression, Cdc25c; format: cell-based, human; conditions: PC-3 cells, 10 µM, time-dependent
Experimental: as §2

Bcl-xL = test: Western blot protein expression, Bcl-xL; format: cell-based, human; conditions: PC-3 cells, 10 µM
Experimental: as §2

[3] = Tissue distribution of 5-DTAN after 7 days oral dosing; format: in vivo; conditions: 50 mg/kg i.g., 7 consecutive days, C57BL/6J mice; except kidney and lung
Experimental: Basically, esterase in the cytosol and plasma rapidly converts 5-ATAN absorbed into cells or into the blood circulation to 5-DTAN by deacetylation. The 5-DTAN in 5-DTAN-treated and 5-ATAN-treated samples can be determined by the HPLC-electrochemical detection (ECD) method. PC-3 cells were seeded in 10 cm dishes (1 × 10^6 cells) and allowed to attach for 24 h. Subsequently, cells were treated with various concentrations of 5-DTAN or 5-ATAN for 12 h, or with 15 µM of 5-DTAN or 5-ATAN for different time periods. Then, the cells were washed with cold PBS, collected, and centrifuged at 300× g for 5 min to remove the supernatant. […] The cytosolic levels of 5-DTAN in the resulting supernatant were analyzed by HPLC with an Ascentis RP-Amide column (L × I.D. 15 cm × 4.6 mm, 3 μm) (Merck KGaA, Darmstadt, Germany) as previously described. […] The samples were reconstituted in methanol and the levels of 5-DTAN were analyzed by HPLC-ECD. Pharmacokinetic parameters, including maximum concentration (Cmax), maximum time (Tmax), half-life (T1/2), and area under the curve (AUC), were calculated and obtained by the Thermo kinetica 5.0 software (Thermo Fisher Scientific, Waltham, MA, USA). […] The supernatant was obtained by centrifuging at 15,130× g for 15 min at 4 °C and then extracted with an equal volume of ethyl acetate and analyzed using the methods described above.

[4] = system: PC-3 human prostate cancer cells; test: MTT cell viability assay; format: cell-based; conditions: PC-3 cells, 48 h; for IC50: Homo sapiens, MTT
Experimental: PC-3 human prostate cancer cell line was obtained from the Bioresource Collection and Research Center (Hsinchu, Taiwan) and maintained in RPMI medium with 10% FBS and 1% penicillin-streptomycin (PS). The cells were incubated in a 5% CO2 humidified atmosphere at 37 °C. TAN, 5-DTAN, and 5-ATAN were dissolved in DMSO to prepare a 20 mM sample stock, and the final ratio of the DMSO in the treatment medium was 0.1%.
as §4

PC-3 cells [5] = test: Colony formation assay; format: cell-based, human; conditions: PC-3 cells, 1.25, 2.5 and 5 µM, 14 days
Experimental: as §3

PC-3 cells [6] = test: DNA fragmentation (agarose gel electrophoresis); format: cell-based, human; conditions: 48 h
Experimental: as §4, with “Then, the extracted DNA was loaded on a 2% agarose gel containing HealthView^TM Nucleic Acid Stain (Genomics, New Taipei, Taiwan) for electrophoresis at 50 V. The gel was visualized under UV light, and the DNA fragmentation pattern was photographed.” left out

PC-3 cells [7] = test: Mitochondrial membrane potential (DiOC6, flow cytometry); format: cell-based, human; conditions: 2.5-10 µM, 48 h
Experimental: as §1

[8] = design: method as in doi:10.1016/j.jff.2008.09.003; conditions: cited from earlier work

Row | IC50 [4] | Compound | Tumor growth inhibitory rate, estimated by the means of tumor weight (PC-3 cell xenografts) | Tumor weight at the end of the experiment (PC-3 cell xenografts) | Effect on tumor volume (PC-3 cell xenografts) | Cell Cycle Distribution (%) G0/G1 (PC-3 cells [2]; 2.5 μM) | Cell Cycle Distribution (%) G2/M (PC-3 cells [2]; 2.5 μM) | Cell Cycle Distribution (%) S (PC-3 cells [2]; 2.5 μM) | Cell Cycle Distribution (%) G0/G1 (PC-3 cells [2]; 5 μM) | Cell Cycle Distribution (%) G2/M (PC-3 cells [2]; 5 μM) | Cell Cycle Distribution (%) S (PC-3 cells [2]; 5 μM) | Cell Cycle Distribution (%) G0/G1 (PC-3 cells [2]; 10 μM) | Cell Cycle Distribution (%) G2/M (PC-3 cells [2]; 10 μM) | Cell Cycle Distribution (%) S (PC-3 cells [2]; 10 μM) | Concentration at which DNA ladders were observed (PC-3 cells [6]) | further results
1 | 5.1 µM | COc1ccc(-c2cc(=O)c3c(OC(C)=O)c(OC)c(OC)c(OC)c3o2)cc1 [5-ATAN, 5-acetyloxy-6,7,8,4′-tetramethoxyflavone] | 61.9% | 0.94 ± 0.18 g | significantly suppressed | 58.5 ± 1.1 ^A % | 34.7 ± 0.8 ^C % | 6.8 ± 0.3 ^B % | 49.1 ± 0.3 ^B % | 45.7 ± 0.5 ^B % | 5.2 ± 0.3 ^C % | 44.7 ± 0.3 ^C % | 50.3 ± 1.3 ^A % | 4.6 ± 0.5 ^D % | higher than 5 μM | Percentage of caspase-3 activity (caspase-3; 2.5 μM): 7.2 ± 0.6%; Percentage of caspase-3 activity (caspase-3; 5 μM): 9.1 ± 1.7%; Percentage of caspase-3 activity (caspase-3; 10 μM): 18.8 ± 02.4%; Expression of Cyclin B1 (Cyclin B1): dramatically down-regulated; Expression of MMP-2 (MMP-2): obviously inhibited; Expression of MMP-9 (MMP-9): significantly inhibited; Expression of Cdc-2 (Cdc2): reduced; Suppression of migration compared to the control (PC-3 cells [1]; 1.25 µM): 35.5%; Suppression of migration compared to the control (PC-3 cells [1]; 2.5 µM): 48.5%; Suppression of migration compared to the control (PC-3 cells [1]; 5 µM): 73.6%; Expression of Bax (Bax): slight increase; Tumor growth inhibitory rate (CL1-5 cell xenograft): 43%; Apoptotic cells (sub-G1) (PC-3 cells [2]; 10 μM): 22.2%; Expression of Cdc25c (Cdc25c): dramatically down-regulated; Expression of Bcl-xL (Bcl-xL): marked decrease; Levels of 5-DTAN in most tissues vs 5-DTAN-treated mice [3]: significantly higher; IC50 fold lower than that of 5-DTAN [4]: 2.3 fold; IC50 fold lower than that of TAN [4]: 3.4 fold; Number of colonies (PC-3 cells [5]): dose-dependently decreased; Effect on mitochondrial membrane potential (PC-3 cells [7]): dose-dependent decline
2 | 17.2 µM | COc1ccc(-c2cc(=O)c3c(OC)c(OC)c(OC)c(OC)c3o2)cc1 [TAN, 5,6,7,8,4′-pentamethoxyflavone, reference compound] | – | – | – | – | – | – | – | – | – | – | – | – | – | –
3 | 11.8 µM | COc1ccc(-c2cc(=O)c3c(O)c(OC)c(OC)c(OC)c3o2)cc1 [5-DTAN, 5-hydroxy-6,7,8,4′-tetramethoxyflavone, reference compound] | 43.7% | 1.39 ± 0.36 g | significantly suppressed | 60.2 ± 2.8 ^b % | 31.6 ± 2.7 ^a % | 8.2 ± 0.1% | 59.9 ± 0.4 ^b % | 31.4 ± 0.5 ^a % | 8.7 ± 0.3% | 58.2 ± 2.4 ^b % | 32.6 ± 1.1 ^a % | 8.5 ± 0.9% | 20 µM | Solubility in biological systems [8]: extremely poor solubility
